The NIST ThermoML archive (doi:10.1021/je900777q)
Where “and” joins values, the source holds several entries; their conditions need not be identical. Identical values can stand only once. Numbers after ± are expanded uncertainties.

Columns and labels:
[1] = Crystal; for vapor or sublimation pressure: Calculated from knudsen effusion weight loss; for Normal melting temperature: DTA
[2] = Molar enthalpy of transition or fusion; conditions: Crystal; DSC

O=C(O)c1cccc(O)c1O [2,3-dihydroxybenzoic acid]
[1]
Conditions | vapor or sublimation pressure
345.22 K | 0.000158 ± 2.1e-05 kPa and 0.000159 ± 2.1e-05 kPa and 0.000157 ± 2.1e-05 kPa
347.21 K | 0.000201 ± 2.1e-05 kPa and 0.000196 ± 2.1e-05 kPa and 0.000197 ± 2.1e-05 kPa
349.23 K | 0.00025 ± 2.2e-05 kPa and 0.000248 ± 2.2e-05 kPa and 0.000246 ± 2.2e-05 kPa
351.19 K | 0.000308 ± 2.3e-05 kPa and 0.00031 ± 2.3e-05 kPa
353.21 K | 0.00038 ± 2.4e-05 kPa and 0.000377 ± 2.4e-05 kPa
355.17 K | 0.000468 ± 2.6e-05 kPa and 0.000466 ± 2.6e-05 kPa
357.2 K | 0.000569 ± 2.8e-05 kPa and 0.000565 ± 2.8e-05 kPa and 0.000564 ± 2.8e-05 kPa
359.2 K | 0.000716 ± 3.2e-05 kPa and 0.000708 ± 3.2e-05 kPa and 0.000711 ± 3.2e-05 kPa
361.21 K | 0.000867 ± 3.7e-05 kPa and 0.000857 ± 3.6e-05 kPa and 0.000861 ± 3.6e-05 kPa
363.18 K | 0.001039 ± 8.1e-05 kPa and 0.001029 ± 8e-05 kPa

Conditions | Molar enthalpy of transition or fusion [kJ/mol] | Normal melting temperature [°C]
[1] | – | 203.2 ± 1.3
[2] | 31.9 ± 1.2 | –

O=C(O)c1ccc(O)cc1O [2,4-dihydroxybenzoic acid]
[1]
Conditions | vapor or sublimation pressure
376.22 K | 0.000198 ± 2.1e-05 kPa and 0.000192 ± 2.1e-05 kPa and 0.000195 ± 2.1e-05 kPa
377.32 K | 0.000224 ± 2.2e-05 kPa and 0.000217 ± 2.1e-05 kPa and 0.00022 ± 2.1e-05 kPa
379.13 K | 0.000269 ± 2.2e-05 kPa and 0.00026 ± 2.2e-05 kPa and 0.000264 ± 2.2e-05 kPa
381.15 K | 0.000315 ± 2.3e-05 kPa and 0.000319 ± 2.3e-05 kPa and 0.000332 ± 2.3e-05 kPa
383.13 K | 0.000399 ± 2.4e-05 kPa and 0.000388 ± 2.4e-05 kPa and 0.00039 ± 2.4e-05 kPa
385.12 K | 0.000501 ± 2.7e-05 kPa and 0.000489 ± 2.6e-05 kPa and 0.000493 ± 2.7e-05 kPa
387.17 K | 0.000613 ± 3e-05 kPa and 0.000591 ± 2.9e-05 kPa and 0.000593 ± 2.9e-05 kPa
389.35 K | 0.000762 ± 3.4e-05 kPa and 0.000732 ± 3.3e-05 kPa and 0.000741 ± 3.3e-05 kPa
391.3 K | 0.000916 ± 3.8e-05 kPa and 0.000884 ± 3.7e-05 kPa and 0.000893 ± 3.7e-05 kPa
392.11 K | 0.000988 ± 4e-05 kPa and 0.000961 ± 3.9e-05 kPa and 0.000955 ± 3.9e-05 kPa

O=C(O)c1cc(O)ccc1O [2,5-dihydroxybenzoic acid]
[1]
Conditions | vapor or sublimation pressure
372.14 K | 0.00015 ± 2.1e-05 kPa and 0.000146 ± 2.1e-05 kPa and 0.000145 ± 2.1e-05 kPa
374.13 K | 0.000192 ± 2.1e-05 kPa and 0.000182 ± 2.1e-05 kPa and 0.000183 ± 2.1e-05 kPa
376.19 K | 0.000231 ± 2.2e-05 kPa and 0.000221 ± 2.1e-05 kPa
378.15 K | 0.000287 ± 2.2e-05 kPa and 0.000299 ± 2.3e-05 kPa and 0.000285 ± 2.2e-05 kPa
380.3 K | 0.000373 ± 2.4e-05 kPa and 0.000356 ± 2.4e-05 kPa and 0.000364 ± 2.4e-05 kPa
382.22 K | 0.00045 ± 2.6e-05 kPa
384.7 K | 0.000572 ± 2.8e-05 kPa and 0.000574 ± 2.9e-05 kPa
386.12 K | 0.000663 ± 3.1e-05 kPa and 0.000649 ± 3e-05 kPa
388.92 K | 0.000905 ± 3.8e-05 kPa and 0.000871 ± 3.7e-05 kPa and 0.000866 ± 3.7e-05 kPa

Conditions | Molar enthalpy of transition or fusion [kJ/mol] | Normal melting temperature [°C]
[1] | – | 203.1 ± 0.5
[2] | 20.8 ± 3.4 | –

O=C(O)c1c(O)cccc1O [2,6-dihydroxybenzoic acid]
[1]
Conditions | vapor or sublimation pressure
347.14 K | 0.000138 ± 2.1e-05 kPa and 0.000131 ± 2.1e-05 kPa and 0.000133 ± 2.1e-05 kPa
349.32 K | 0.000171 ± 2.1e-05 kPa and 0.000173 ± 2.1e-05 kPa
351.02 K | 0.000204 ± 2.1e-05 kPa and 0.000208 ± 2.1e-05 kPa
353.26 K | 0.000255 ± 2.2e-05 kPa and 0.000249 ± 2.2e-05 kPa
355.35 K | 0.000323 ± 2.3e-05 kPa and 0.000336 ± 2.3e-05 kPa
357.2 K | 0.000401 ± 2.5e-05 kPa and 0.000391 ± 2.4e-05 kPa and 0.000386 ± 2.4e-05 kPa
359.28 K | 0.000491 ± 2.7e-05 kPa and 0.000477 ± 2.6e-05 kPa and 0.000479 ± 2.6e-05 kPa
361.38 K | 0.000609 ± 2.9e-05 kPa and 0.00059 ± 2.9e-05 kPa and 0.000586 ± 2.9e-05 kPa
363.19 K | 0.000713 ± 3.2e-05 kPa and 0.000692 ± 3.2e-05 kPa and 0.000679 ± 3.1e-05 kPa
365.17 K | 0.000881 ± 3.7e-05 kPa and 0.000845 ± 3.6e-05 kPa and 0.000834 ± 3.6e-05 kPa

O=C(O)c1ccc(O)c(O)c1 [3,4-dihydroxybenzoic acid]
[1]
Conditions | vapor or sublimation pressure
387.12 K | 8.9e-05 ± 2e-05 kPa and 8.7e-05 ± 2e-05 kPa and 8.6e-05 ± 2e-05 kPa
391.31 K | 0.000132 ± 2.1e-05 kPa and 0.000133 ± 2.1e-05 kPa
393.33 K | 0.000166 ± 2.1e-05 kPa and 0.000164 ± 2.1e-05 kPa and 0.000165 ± 2.1e-05 kPa
395.2 K | 0.0002 ± 2.1e-05 kPa and 0.000202 ± 2.1e-05 kPa and 0.000201 ± 2.1e-05 kPa
397.32 K | 0.000249 ± 2.2e-05 kPa and 0.000253 ± 2.2e-05 kPa and 0.00025 ± 2.2e-05 kPa
401.25 K | 0.000367 ± 2.4e-05 kPa and 0.000365 ± 2.4e-05 kPa
403.26 K | 0.000451 ± 2.6e-05 kPa and 0.000452 ± 2.6e-05 kPa and 0.00045 ± 2.6e-05 kPa

O=C(O)c1cc(O)cc(O)c1 [3,5-dihydroxybenzoic acid]
[1]
Conditions | vapor or sublimation pressure
407.36 K | 9.8e-05 ± 2e-05 kPa and 9.7e-05 ± 2e-05 kPa
410.25 K | 0.00013 ± 2.1e-05 kPa and 0.000129 ± 2.1e-05 kPa
413.16 K | 0.000176 ± 2.1e-05 kPa and 0.000179 ± 2.1e-05 kPa and 0.000175 ± 2.1e-05 kPa
416.13 K | 0.000237 ± 2.2e-05 kPa and 0.000234 ± 2.2e-05 kPa and 0.000238 ± 2.2e-05 kPa
419.21 K | 0.000305 ± 2.3e-05 kPa and 0.00031 ± 2.3e-05 kPa and 0.000311 ± 2.3e-05 kPa
422.2 K | 0.000407 ± 2.5e-05 kPa and 0.000409 ± 2.5e-05 kPa and 0.000412 ± 2.5e-05 kPa
425.23 K | 0.000561 ± 2.8e-05 kPa and 0.000563 ± 2.8e-05 kPa

Conditions | Molar enthalpy of transition or fusion [kJ/mol] | Normal melting temperature [°C]
[1] | – | 235.2 ± 0.5
[2] | 38.3 ± 1.1 | –
